Reference: US12319703B2, “Macrocyclic fused pyrazoles as Mcl-1 inhibitors” (ASCENTAGE PHARMA (SUZHOU) CO., LTD., priority 2019, dated 2025)
Converted amounts (≈) assume the structure as drawn.

How the values were obtained:
[1] = from CCOC(=O)c1c(CCCOc2cc(S)cc3ccccc23)c2ccc(Cl)c(-c3c(CSCc4cc(CBr)n(C)n4)nn4c3CCC4)c2n1C; thioether bond; K2CO3; acetonitrile; 3.14 mM; 25.0 °C; 3.0 h; 6 steps
[2] = system: NCI-H929 cells; assay: Cell viability assay (NCI-H929 cells), CCK-8; format: cell-based; conditions: Homo sapiens, NCI-H929, 24 h, WST, 5% FBS
[3] = molecular target: T1, Mcl-1 protein (residues 171-323) (Homo sapiens, UniProt Q07820); assay: Inhibition of Mcl-1 by fluorescence polarization (FP) competitive binding assay; conditions: FAM-Bid tracer 2 nM, Mcl-1 20 nM, 30 min
T1 construct: Tag-free Mcl-1 protein (residues 171-323) was used in the FP assay
T1 sequence (Q07820 171-323): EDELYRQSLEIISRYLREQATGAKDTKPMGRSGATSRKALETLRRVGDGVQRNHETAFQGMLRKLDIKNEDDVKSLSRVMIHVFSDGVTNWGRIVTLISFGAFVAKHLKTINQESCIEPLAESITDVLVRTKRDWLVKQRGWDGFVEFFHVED
How it was run: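 FAM-Bid peptide (2 nM) was competed against Mcl-1 (20 nM) in PBS with 0.01% BGG and 0.01% Triton X-100 at 5% final DMSO. Anisotropy was read as mP over a 10-point dilution series. IC50 came from a sigmoidal dose-response nonlinear fit.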

[4] = system: OPM-2 cells; assay: Cell viability assay (OPM-2 cells), CCK-8; format: cell-based; conditions: Homo sapiens, OPM-2, 24 h, WST, 5% FBS, read-out: OPM2 (WST, 5% FBS)
How it was run: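 OPM-2 cells from DSMZ were tested for viability with a Cell Counting Kit-8 (CCK-8) assay. Serially diluted compound (100 μL) was added to 96-well plates, then 100 μL of cell suspension (20000 cells/well) was added, and plates were incubated at 37° C. under 5% CO2 for 24 hours. After 20 μL CCK-8 solution and 4 hours of incubation, absorbance was read at 450 nm. Readings were normalized to vehicle and IC50 was fitted by nonlinear regression in GraphPad Prism 6.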

[5] = Kinetic solubility assay; format: physicochemical; conditions: PBS buffer pH 6.5, aqueous buffer, thermodynamic from solid; pH 6.5 PBS buffer, HPLC; read-out: Solubility (pH 6.5, μg/mL)
Experimental: Representative Compounds of the Disclosure were tested in a solubility assay with pH 6.5 PBS buffer. PBS buffer was prepared by dissolving 4.86 g of potassium dihydrogen phosphate and 5.09 g of disodium hydrogen phosphate dodecahydrate in 1 L of ultrapure water to have final pH value of 6.5. In the solubility assay, 0.5 mg of test sample was dissolved in 1 mL of methanol and the stock solution was transferred into 2 mL EP tube, and evaporated at 50° C. for 3 h. To the tube was added 1 mL of PBS buffer and the mixture was stirred and shaken for 1-2 h. The solution was allowed to stand overnight and then filtered before HPLC analysis. Another 1.5 mg of the sample was dissolved in 3 mL of methanol to prepare a calibration curve with a series of concentration range of 5-500 μM. The solubility of each sample was determined by the measured peak area in HPLC.

Compound | IC50 [2] | IC50 [3] | solubility [5] | ring closure, yield of all isomers [1] | IC50 [4]
Cn1nc2cc1CSc1cc(c3ccccc3c1)OCCCc1c(C(=O)O)n(C)c3c(c(Cl)ccc13)-c1c(nn3c1CCC3)CSC2 | – | – | – | 3% | –
Cc1oc2nc1CSc1cc(c3ccccc3c1)OCCCc1c(C(=O)O)n(C)c3c(c(Cl)ccc13)-c1c(nn3c1OCC3)CSC2 [compound 38, (Z)-1^6-chloro-1^1,6^5-dimethyl-2^2,2^3-dihydro-1^1H-10-oxa-4,8-dithia-2(7,6)-pyrazolo[5,1-b]oxazola-6(2,4)-oxazola-1(7,3)-indola-9(3,1)-naphthalenacyclotridecaphane-1^2-carboxylic acid] | 5990 nM | 85 nM | 127 µg/mL (≈ 185 µM) | – | 5880 nM
Cc1c2c(nn1C)CN(C1CC1)Cc1cc(n(C)n1)CSc1cc(c3ccccc3c1)OCCCc1c(C(=O)O)n(C)c3c-2c(Cl)ccc13 [compound 49, (Z)-1^6-chloro-4-cyclopropyl-1^1,2^1,2^5,6^1-tetramethyl-1^1H,2^1H,6^1H-10-oxa-8-thia-4-aza-1(7,3)-indola-2(4,3),6(3,5)-dipyrazola-9(3,1)-naphthalenacyclotridecaphane-1^2-carboxylic acid] | 55 nM | 21 nM | 28 µg/mL (≈ 40.3 µM) | – | 167 nM
Cc1oc2nc1CSc1cc(c3ccccc3c1)OCCCc1c(C(=O)O)n(C)c3c(c(Cl)ccc13)-c1c(nn3c1CCC3)CSC2 [compound 11, (Z)-1^6-chloro-1^1,6^5-dimethyl-2^5,2^6-dihydro-1^1H,2^4H-10-oxa-4,8-dithia-6(2,4)-oxazola-1(7,3)-indola-2(3,2)-pyrrolo[1,2-b]pyrazola-9(3,1)-naphthalenacyclotridecaphane-1^2-carboxylic acid] | 3540 nM | 10.6 nM | < 1 µg/mL | – | > 10000 nM
Cn1nc2cc1CSc1cc(c3cc(Cl)ccc3c1)OCCCc1c(C(=O)O)n(C)c3c(c(Cl)ccc13)-c1c(nn3c1COCC3)CSC2 [compound 18, (Z)-1^6,9^7-dichloro-1^1,6^1-dimethyl-2^6,2^7-dihydro-1^1H,2^4H,6^1H-10-oxa-4,8-dithia-2(3,2)-pyrazolo[5,1-c][1,4]oxazina-1(7,3)-indola-6(3,5)-pyrazola-9(3,1)-naphthalenacyclotridecaphane-1^2-carboxylic acid] | 1620 nM | 19 nM | < 1 µg/mL | – | 3490 nM

The next lines start with results.

IC50 [2] | IC50 [3] | solubility [5] | Compound | ring closure, yield of all isomers [1] | IC50 [4]
156 nM | 15 nM | > 400 µg/mL | Cn1nc2cc1CSc1cc(c3ccc(F)cc3c1)OCCCc1c(C(=O)O)n(C)c3c(c(Cl)ccc13)-c1c(nn3c1CCC3)CN(S(C)(=O)=O)C2 [compound 44, (Z)-1^6-chloro-9^6-fluoro-1^1,6^1-dimethyl-4-(methylsulfonyl)-2^5,2^6-dihydro-1^1H,2^4H,6^1H-10-oxa-8-thia-4-aza-1(7,3)-indola-2(3,2)-pyrrolo[1,2-b]pyrazola-6(3,5)-pyrazola-9(3,1)-naphthalenacyclotridecaphane-1^2-carboxylic acid] | – | 506 nM
100 nM | 10 nM | < 1 µg/mL | Cn1nc2cc1CSc1cc(c3ccccc3c1)OCCCc1c(C(=O)O)n(C)c3c(c(Cl)ccc13)-c1c(nn3c1CCCCC3)CSC2 [compound 23, (Z)-1^6-chloro-1^1,6^1-dimethyl-2^5,2^6,2^7,2^8-tetrahydro-1^1H,2^4H,6^1H-10-oxa-4,8-dithia-2(3,2)-pyrazolo[1,5-a]azepina-1(7,3)-indola-6(3,5)-pyrazola-9(3,1)-naphthalenacyclotridecaphane-1^2-carboxylic acid] | – | 195 nM
51 nM | 24.9 nM | 52 µg/mL (≈ 74 µM) | Cn1nc2cc1CSc1cc(c3ccc(F)cc3c1)OCCCc1c(C(=O)O)n(C)c3c(c(Cl)ccc13)-c1c(nn3c1CCC3)CSC2 [compound 27, (Z)-1^6-chloro-9^6-fluoro-1^1,6^1-dimethyl-2^5,2^6-dihydro-1^1H,2^4H,6^1H-10-oxa-4,8-dithia-1(7,3)-indola-2(3,2)-pyrrolo[1,2-b]pyrazola-6(3,5)-pyrazola-9(3,1)-naphthalenacyclotridecaphane-1^2-carboxylic acid] | – | 153 nM
44 nM | 30.9 nM | 1 µg/mL (≈ 1.4 µM) | Cn1nc2cc1CSc1cc(c3ccc(F)cc3c1)OCCCc1c(C(=O)O)n(C)c3c(c(Cl)ccc13)-c1c(nn3c1CCCC3)CSC2 [compound 26, (Z)-1^6-chloro-96-fluoro-1^1,6^1-dimethyl-2^4,2^5,2^6,2^7-tetrahydro-1^1H,6^1H-10-oxa-4,8-dithia-2(3,2)-pyrazolo[1,5-a]pyridina-1(7,3)-indola-6(3,5)-pyrazola-9(3,1)-naphthalenacyclotridecaphane-1^2-carboxylic acid] | – | 133 nM
